{
  "source": "patent US20100105139A1",
  "about": "“Ligand Targeted Nanocapsules for the delivery of RNAi and other Agents” (priority 2008, published 2010)",
  "origin": "cited, not measured here",
  "test_system": "advanced stage melanoma",
  "conditions": "melanoma patients",
  "data": [
    {"smiles": "COc1cccc2c1C(=O)c1c(O)c3c(c(O)c1C2=O)C[C@@](O)(C(=O)CO)C[C@@H]3O[C@H]1C[C@H](N)[C@H](O)[C@H](C)O1", "note": "[DOX, Doxorubicin]", "values": [
      {"measurement": "response rates", "value": "essentially ineffective"}
    ]}
  ]
}
